Reference: patent US20230091047A1 (priority 2019, published 2023)

Tests used:
in vitro = assay type: cell-based; details: human, HepG2 or HepG2.117 cells, 3-days incubation (unmarked values), ATPlite; mean value
In short: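 Luminescent ATP quantitation served as the viability endpoint following a 3- or 4-day incubation with test compounds.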

[1] = tested on: HBV (HepG2.117 cell line, inducibly HBV producing); assay: Anti-HBV activity: intracellular HBV DNA by real-time PCR in HepG2.117 cells after 3 days of treatment; assay type: cell-based, hepatitis B virus; details: Hepatitis B virus, HepG2.117, 72 h, HepG2.117 cells, 3 days of treatment, intracellular HBV DNA by real-time PCR; mean value; read-out: EC50 (μM, mean value)
In short: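 HepG2.117 cells replicate HBV under Tet-off control, without doxycycline. After induction of replication, cells were treated with serially diluted compound for 3 days, and intracellular HBV DNA was then quantified by real-time PCR with an HBV-specific primer set and probe.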

Row | SMILES | CC50 at 3 days (in vitro) | EC50 [1]
1 | CC(C)Nc1nc2c(c(=O)n1-c1ccc3c(c1)CC(=O)N3)C[C@@H](C)N(C(=O)c1ccc(Cl)c(Cl)c1)C2 [Compound C206, (6R)-7-(3,4-dichlorobenzoyl)-6-methyl-3-(2-oxo-2,3-dihydro-1H-indol-5-yl)-2-[(propan-2-yl)amino]-5,6,7,8-tetrahydropyrido[3,4-d]pyrimidin-4(3H)-one] | 48.9 µM | 0.16 µM
2 | C[C@@H]1Cc2c(nc(NC(C)(C)c3cnn(C)c3)n(-c3ccc(S(C)(=O)=O)cc3)c2=O)CN1C(=O)c1ccc(Cl)c(Cl)c1 [Compound C207, (6R)-7-(3,4-dichlorobenzoyl)-3-[4-(methanesulfonyl)phenyl]-6-methyl-2-{[2-(1-methyl-1H-pyrazol-4-yl)propan-2-yl]amino}-5,6,7,8-tetrahydropyrido[3,4-d]pyrimidin-4(3H)-one] | > 50 µM | 0.59 µM
3 | CC(C)Nc1nc2c(c(=O)n1-c1ccc(C(=O)NCCN3CCN(C)CC3)cc1)C[C@@H](C)N(C(=O)c1ccc(Cl)c(Cl)c1)C2 [Compound C208, 4-[(6R)-7-(3,4-dichlorobenzoyl)-6-methyl-4-oxo-2-[(propan-2-yl)amino]-5,6,7,8-tetrahydropyrido[3,4-d]pyrimidin-3(4H)-yl]-N-[2-(4-methylpiperazin-1-yl)ethyl]benzamide] | 26.3 µM | 0.62 µM
4 | CC(C)Nc1nc2c(c(=O)n1-c1ccc(C(=O)NC3COC3)cc1)C[C@@H](C)N(C(=O)c1ccc(Cl)c(Cl)c1)C2 [Compound C209, 4-[(6R)-7-(3,4-dichlorobenzoyl)-6-methyl-4-oxo-2-[(propan-2-yl)amino]-5,6,7,8-tetrahydropyrido[3,4-d]pyrimidin-3(4H)-yl]-N-(oxetan-3-yl)benzamide] | > 50 µM | 0.82 µM
5 | CNC(=O)c1ccc(-n2c(NC(C)C)nc3c(c2=O)CCN(C(=O)c2ccc(Cl)c(Cl)c2)C3)cc1Cl [Compound C210, 2-chloro-4-[7-(3,4-dichlorobenzoyl)-4-oxo-2-[(propan-2-yl)amino]-5,6,7,8-tetrahydropyrido[3,4-d]pyrimidin-3(4H)-yl]-N-methylbenzamide] | > 50 µM | 0.27 µM
6 | Cc1noc(C)c1-c1ccc(-n2c(NC(C)C)nc3c(c2=O)C[C@@H](C)N(C(=O)c2ccc(Cl)c(Cl)c2)C3)cc1 [Compound C211, (6R)-7-(3,4-dichlorobenzoyl)-3-[4-(3,5-dimethyl-1,2-oxazol-4-yl)phenyl]-6-methyl-2-[(propan-2-yl)amino]-5,6,7,8-tetrahydropyrido[3,4-d]pyrimidin-4(3H)-one] | > 50 µM | 0.15 µM
7 | CC(C)Nc1nc2c(c(=O)n1-c1ccc(-c3ccns3)cc1)C[C@@H](C)N(C(=O)c1ccc(Cl)c(Cl)c1)C2 [Compound C212, (6R)-7-(3,4-dichlorobenzoyl)-6-methyl-2-[(propan-2-yl)amino]-3-[4-(1,2-thiazol-5-yl)phenyl]-5,6,7,8-tetrahydropyrido[3,4-d]pyrimidin-4(3H)-one] | > 50 µM | 0.26 µM
8 | CC(C)Nc1nc2c(c(=O)n1-c1ccc(-c3cnc[nH]3)cc1)C[C@@H](C)N(C(=O)c1ccc(Cl)c(Cl)c1)C2 [Compound C213, (6R)-7-(3,4-dichlorobenzoyl)-3-[4-(1H-imidazol-5-yl)phenyl]-6-methyl-2-[(propan-2-yl)amino]-5,6,7,8-tetrahydropyrido[3,4-d]pyrimidin-4(3H)-one] | > 50 µM | 0.36 µM
9 | CC(C)Nc1nc2c(c(=O)n1-c1ccc(C(=O)NCC(C)(C)C(=O)O)cc1)C[C@@H](C)N(C(=O)c1ccc(Cl)c(Cl)c1)C2 [Compound C214, 3-{4-[(6R)-7-(3,4-dichlorobenzoyl)-6-methyl-4-oxo-2-[(propan-2-yl)amino]-5,6,7,8-tetrahydropyrido[3,4-d]pyrimidin-3(4H)-yl]benzamido}-2,2-dimethylpropanoic acid] | > 50 µM | 14.6 µM
10 | CC(C)Nc1nc2c(c(=O)n1-c1ccc(N3CCCC3CO)cc1)C[C@@H](C)N(C(=O)c1ccc(Cl)c(Cl)c1)C2 (stereo partly drawn) [Compound C215, (6R)-7-(3,4-dichlorobenzoyl)-3-{4-[2-(hydroxymethyl)pyrrolidin-1-yl]phenyl}-6-methyl-2-[(propan-2-yl)amino]-5,6,7,8-tetrahydropyrido[3,4-d]pyrimidin-4(3H)-one] | 31.9 µM | 0.21 µM
11 | CC(C)Nc1nc2c(c(=O)n1-c1ccc(N3CCOCC3)cc1)C[C@@H](C)N(C(=O)c1ccc(Cl)c(Cl)c1)C2 [Compound C218, (6R)-7-(3,4-dichlorobenzoyl)-6-methyl-3-[4-(morpholin-4-yl)phenyl]-2-[(propan-2-yl)amino]-5,6,7,8-tetrahydropyrido[3,4-d]pyrimidin-4(3H)-one] | > 50 µM | 0.16 µM
12 | CNC(=O)c1ccc(-n2c(NC(C)C)nc3c(c2=O)CCN(C(=O)c2ccc(Cl)c(Cl)c2)C3)cc1F [Compound C219, 4-[7-(3,4-dichlorobenzoyl)-4-oxo-2-[(propan-2-yl)amino]-5,6,7,8-tetrahydropyrido[3,4-d]pyrimidin-3(4H)-yl]-2-fluoro-N-methylbenzamide] | > 50 µM | 0.28 µM
13 | CNC(=O)c1ccc(-n2c(NCc3ccc(OC)cc3)nc3c(c2=O)CCN(C(=O)c2ccc(Cl)c(Cl)c2)C3)cc1F [Compound C220, 4-[7-(3,4-dichlorobenzoyl)-2-{[(4-methoxyphenyl)methyl]amino}-4-oxo-5,6,7,8-tetrahydropyrido[3,4-d]pyrimidin-3(4H)-yl]-2-fluoro-N-methylbenzamide] | > 50 µM | 0.42 µM
14 | Cc1cc(C(=O)N2CCc3c(nc(NC(C)C)n(-c4ccc(S(C)(=O)=O)cc4)c3=O)C2)ccc1Cl [Compound C221, 7-(4-chloro-3-methylbenzoyl)-3-[4-(methanesulfonyl)phenyl]-2-[(propan-2-yl)amino]-5,6,7,8-tetrahydropyrido[3,4-d]pyrimidin-4(3H)-one] | > 50 µM | 1.58 µM
15 | CC(C)Nc1nc2c(c(=O)n1-c1ccc(S(C)(=O)=O)cc1)CCN(C(=O)c1ccc(Cl)c(C(C)C)c1)C2 [Compound C222, 7-[4-chloro-3-(propan-2-yl)benzoyl]-3-[4-(methanesulfonyl)phenyl]-2-[(propan-2-yl)amino]-5,6,7,8-tetrahydropyrido[3,4-d]pyrimidin-4(3H)-one] | > 50 µM | 1.45 µM
16 | CC(C)Nc1nc2c(c(=O)n1-c1ccc(S(C)(=O)=O)cc1)CCN(C(=O)c1ccc(Cl)c(Cl)n1)C2 [Compound C223, 7-(5,6-dichloropyridine-2-carbonyl)-3-[4-(methanesulfonyl)phenyl]-2-[(propan-2-yl)amino]-5,6,7,8-tetrahydropyrido[3,4-d]pyrimidin-4(3H)-one] | > 50 µM | > 10 µM
17 | Cc1coc2ccc(C(=O)N3CCc4c(nc(NC(C)C)n(-c5ccc(S(C)(=O)=O)cc5)c4=O)C3)cc12 [Compound C224, 3-[4-(methanesulfonyl)phenyl]-7-(3-methyl-1-benzofuran-5-carbonyl)-2-[(propan-2-yl)amino]-5,6,7,8-tetrahydropyrido[3,4-d]pyrimidin-4(3H)-one] | > 50 µM | 6.71 µM
18 | CC(C)Nc1nc2c(c(=O)n1-c1ccc(S(C)(=O)=O)cc1)CCN(C(=O)c1ccc(Cl)c(C3CC3)c1)C2 [Compound C225, 7-(4-chloro-3-cyclopropylbenzoyl)-3-[4-(methanesulfonyl)phenyl]-2-[(propan-2-yl)amino]-5,6,7,8-tetrahydropyrido[3,4-d]pyrimidin-4(3H)-one] | > 50 µM | 3.46 µM
19 | COC(=O)c1ccc(-n2c(NC(C)C)nc3c(c2=O)C[C@@H](C)N(C(=O)c2ccc(Cl)c(Cl)c2)C3)cn1 [Compound C226] | > 50 µM | 2.3 µM
20 | CC(C)NC(=O)c1ccc(-n2c(NC(C)C)nc3c(c2=O)C[C@@H](C)N(C(=O)c2ccc(Cl)c(Cl)c2)C3)cn1 [Compound C227, 5-[(6R)-7-(3,4-dichlorobenzoyl)-6-methyl-4-oxo-2-[(propan-2-yl)amino]-5,6,7,8-tetrahydropyrido[3,4-d]pyrimidin-3(4H)-yl]-N-(propan-2-yl)pyridine-2-carboxamide] | > 50 µM | 0.18 µM
21 | CC(C)Nc1nc2c(c(=O)n1-c1ccc(Cl)nc1)C[C@@H](C)N(C(=O)c1ccc(Cl)c(Cl)c1)C2 [Compound C228, (6R)-3-(6-chloropyridin-3-yl)-7-(3,4-dichlorobenzoyl)-6-methyl-2-[(propan-2-yl)amino]-5,6,7,8-tetrahydropyrido[3,4-d]pyrimidin-4(3H)-one] | > 50 µM | 0.27 µM
22 | CC(C)Nc1nc2c(c(=O)n1-c1ccc3c(c1)C(=O)NC3)C[C@@H](C)N(C(=O)c1ccc(Cl)c(Cl)c1)C2 [Compound C229, (6R)-7-(3,4-dichlorobenzoyl)-6-methyl-3-(3-oxo-2,3-dihydro-1H-isoindol-5-yl)-2-[(propan-2-yl)amino]-5,6,7,8-tetrahydropyrido[3,4-d]pyrimidin-4(3H)-one] | > 50 µM | 0.11 µM
23 | CCOC(=O)c1ccc(-n2c(NC(CCO)C3CC3)nc3c(c2=O)C[C@@H](C)N(C(=O)c2ccc(Cl)c(Cl)c2)C3)cc1 (stereo partly drawn) [Compound C230, ethyl 4-[(6R)-2-[(1-cyclopropyl-3-hydroxypropyl)amino]-7-(3,4-dichlorobenzoyl)-6-methyl-4-oxo-5,6,7,8-tetrahydropyrido[3,4-d]pyrimidin-3(4H)-yl]benzoate] | > 50 µM | 1.7 µM
24 | CC(C)Nc1nc2c(c(=O)n1-c1ccc3c(c1)CNC3=O)C[C@@H](C)N(C(=O)c1ccc(Cl)c(Cl)c1)C2 [Compound C231, (6R)-7-(3,4-dichlorobenzoyl)-6-methyl-3-(1-oxo-2,3-dihydro-1H-isoindol-5-yl)-2-[(propan-2-yl)amino]-5,6,7,8-tetrahydropyrido[3,4-d]pyrimidin-4(3H)-one] | > 50 µM | 0.15 µM
